Several values for one entry are separate records, joined by “and”; a condition that tells them apart may be missing. Equal entries are not always repeated. Activity calls are given as the source filed them.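 Rule for the calls: active = compounds giving half or more protection of infected cells from virus-caused growth loss, again on retest; inactive = the rest.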 Where a SMILES comes first, the peptide text is derived from it.
Tested on: CEM cells HIV-1 protection, formazan growth assay
Experiment: NCI AIDS Antiviral Assay
Conditions: for IC50: measured here: growth of uninfected CEM cells
Outline: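 Steps: treat uninfected and HIV-1-infected human CEM cells at five drug levels; quantify growth by soluble formazan; retest any compound reaching 50% protection; classify actives from the retest.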

## C1CN2CCOB(O1)OCC2
  EC50: > 200 µM
  IC50: > 200 µM

## Cc1nc2c(=O)[nH]c3ccc(Cl)cc3c2o1
  EC50: > 200 µM
  IC50: 148 µM

## Cc1cc(=O)oc2cc(O)ccc12
  EC50: > 741 µM
  IC50: 191 µM and > 200 µM

## O=C(OCC1CCCN2CCCCC12)c1cccnc1 (stereo unspecified)
  EC50: > 200 µM
  IC50: > 200 µM

## CS/C(=N\N=C(/C)c1ccccn1)N1CCN(c2ccccn2)CC1
  EC50: > 123 µM
  IC50: 17.4 µM

## C=C(C)[C@H]1CC(=O)[C@@]2(C)C[C@H]3O[C@]3(C)CC/C=C(\C)CC[C@H]12
  EC50: > 200 µM
  IC50: 55 µM

## CC(C)CC(N)C(=O)NC(CC(=O)O)C(=O)NC(CCCCN)C(=O)NC(C)C(=O)NC(CO)C(=O)NC(Cc1ccc(O)cc1)C(=O)NC(CO)C(=O)NC(C(=O)NC(CC(N)=O)C(=O)NC(Cc1cnc[nH]1)C(=O)NC(CC(C)C)C(=O)O)C(C)O (stereo unspecified) (H-LDKASYSTNHL-OH; configuration not given here)
  EC50: > 50.1 µM
  outcome: inactive
  IC50: > 50.1 µM

## COc1c(C)c2c(c(C)c1Cl)Oc1c(C=O)c(O)c(Cl)c(C)c1C(=O)O2
  EC50: > 18.2 µM
  IC50: > 18.2 µM

## NC(=N\N=C\C(O)C(O)C(O)C(O)C(=O)O)/C(N)=N/N=C/C(O)C(O)C(O)C(O)C(=O)O (stereo unspecified)
  outcome: inactive

## COC(=O)C1C2CC3C1C3C2C(=O)OC (stereo unspecified)
  EC50: > 200 µM
  IC50: > 200 µM

## Nc1ncnc2c1ncn2C1OC(CO)C2NP(=O)(N(CCCl)CCCl)OC21 (stereo unspecified)
  EC50: > 200 µM
  outcome: inactive
  IC50: > 200 µM

## CN(C)CC/C(=N\Nc1ccccc1)c1ccccc1
  outcome: inactive

## COc1cc(/C=C(\NC(=O)c2ccccc2)c2nc3ccc4c(c3[nH]2)C(=O)c2ccccc2C4=O)cc(OC)c1OC
  outcome: inactive

## CCOC(=O)Cc1ccc2c(c1)sc1nc(-c3ccc(OC)cc3)cn12
  EC50: > 200 µM
  IC50: 60.3 µM

## Cc1cn(C2CC3OP(=O)(OCc4ccccc4)OCC3O2)c(=O)[nH]c1=O (stereo unspecified)
  EC50: > 3.63 µM
  IC50: > 3.63 µM

## CC1=CC(C)(C)C(C#N)(C#N)C(N)=C1C#N
  EC50: > 200 µM
  IC50: 95.5 µM

## COc1cc(/C=C2\CCC(C)/C(=C\c3cc(OC)c(OC)c(OC)c3)C2=O)cc(OC)c1OC (stereo unspecified)
  EC50: > 200 µM
  IC50: 7.24 µM

## C#CC1(O)CCC2C3CCc4cc(OC)ccc4C3CCC21C (stereo unspecified)
  EC50: > 200 µM
  IC50: 74.1 µM

## CN(C)N=Nc1ccc(/C=C2/C=Cc3ccccc32)cc1
  EC50: > 49 µM
  IC50: > 49 µM

## O=Cc1ccc(-c2ccc(-c3ccc(C=O)s3)o2)s1
  outcome: inactive

## Cc1ccc(C(=O)NC2CCCCC2)cc1N=NN(C)C
  EC50: > 46.8 µM
  IC50: 45.7 µM

## COC(=O)c1cc(C(=CCN[C@H]2CC[C@@]3(C)[C@@H](CC[C@@H]4[C@@H]3CC[C@]3(C)[C@@H]([C@H](C)CCCC(C)C)CC[C@@H]43)C2)c2cc(Cl)c(OC)c(C(=O)OC)c2)cc(Cl)c1OC
  EC50: > 100 µM
  IC50: > 100 µM

## CSc1n[nH]c(NC(=O)c2cccc(C(F)(F)F)c2)n1
  EC50: > 44.7 µM
  IC50: > 44.7 µM

## CCSC(CC(O)C(O)C(O)CO)SCC (stereo unspecified)
  EC50: > 200 µM
  IC50: > 200 µM

## CC(C(=O)N1C(=O)N(C(=O)[C@H](C)C(O)c2ccccc2)[C@H](c2ccccc2)[C@H]1c1ccccc1)[C@@H](O)c1ccccc1 (stereo partly specified)
  EC50: > 200 µM
  IC50: 28.2 µM

## Cc1cc2c(c3c1c1ccccc1n3C)C(=O)C=CC2=O
  EC50: > 36.3 µM
  IC50: 3.72 µM

## N#Cc1c(N)c2c(c(-c3ccccc3)c1-c1ccccc1)C(=O)N(N)C2=O
  EC50: > 200 µM
  IC50: 117 µM

## O=c1[nH]c(=O)n(C2CC(O)C(CO)O2)cc1OCCCc1ccccc1 (stereo unspecified)
  EC50: > 200 µM
  IC50: > 200 µM

## CS(=O)(=O)N(CCC#N)c1ccc(/C=N/NC(=O)CC(=O)Nc2cccc(Cl)c2)cc1
  EC50: > 204 µM
  IC50: > 204 µM

## COc1cc(-c2cc(=O)c3c(C)cc(O)cc3o2)cc(OC)c1OC
  EC50: 112 µM
  IC50: > 200 µM

## O=C(c1ccccn1)c1nc(-c2ccc(Cl)c(Cl)c2)nc2ccc(Cl)cc12
  outcome: inactive

## C/C(=N/NC(=S)Nc1ccccc1Cl)c1ccccn1
  EC50: > 0.2 µM
  IC50: 0.0372 µM

## COc1ccc(C(C#N)NC23CC4CC(CC(C4)C2)C3)cc1OC (stereo unspecified)
  outcome: inactive

## COc1cc(OC)c2nc(C)c(CCCl)c(Cl)c2c1
  EC50: > 200 µM
  IC50: > 200 µM

## O=c1[nH]cnc2c1ncn2C1CC(O)C(CO)(C(F)(F)F)O1 (stereo unspecified)
  EC50: > 200 µM
  IC50: 132 µM

## C/C(=N/NC(=S)Nc1ccc(C)cc1)c1ccccn1
  EC50: > 0.2 µM
  IC50: 0.0794 µM

## CCOC(=O)c1nc(SC)sc1NC(=O)c1ccccc1N
  EC50: > 200 µM
  IC50: > 200 µM

## COC(=O)C1=C2Nc3ccccc3[C@@]23CCN(Cc2ccccc2)C3C[C@H]1C1=CC(OC)OC1OC (stereo partly specified)
  EC50: > 25.7 µM
  IC50: 15.1 µM

## COC1CC2C3/C(=N/Nc4ccc([N+](=O)[O-])cc4[N+](=O)[O-])CCC2(C)C3C1 (stereo unspecified)
  outcome: inactive

## [Cl][Ni].[NH-]C(Cc1c[nH]cn1)C(=O)O (stereo unspecified)
  EC50: > 100 µM
  IC50: > 100 µM

## CCOC(=O)c1ccc(N=[N+]([O-])c2ccc(C(=O)OCC)cc2)cc1
  EC50: > 100 µM
  IC50: > 100 µM

## C=C(CC)C[C@@H]1C[C@]2(C(=O)OC)c3[nH]c4ccccc4c3CCN2C1=O
  EC50: > 200 µM
  IC50: 36.3 µM

## CSc1nc2c(c(O)c(C)c(=O)n2C2OCC(OC(C)=O)C(OC(C)=O)C2OC(C)=O)c(=O)n1C (stereo unspecified)
  EC50: > 70.8 µM
  IC50: > 70.8 µM

## CCC(C#N)N(Cc1ccc(CN(C(=O)c2ccccc2)C(C#N)CC)cc1)C(=O)c1ccccc1 (stereo unspecified)
  EC50: > 200 µM
  IC50: 8.71 µM

## Cc1cn([C@H]2C[C@@H]3[C@@H](COC(CC[Se]C#N)N3O)O2)c(=O)[nH]c1=O (stereo partly specified)
  EC50: 3.98 µM
  IC50: 28.8 µM

## C/C(N=NC(=S)N1CC2CCC(CC2)C1)=C1\C=CC=CN1O
  EC50: > 158 µM
  IC50: 1.86 µM

## Cc1ccc([N+](=O)[O-])cc1NC(=O)C(=O)Cc1occc(=O)c1O
  outcome: inactive

## CC(=O)OCC12C(OC(C)=O)C[C@@H](C)C3(CC(c4ccoc4)OC3=O)C1CCC(OC(C)=O)C21CO1 (stereo partly specified)
  EC50: > 200 µM
  IC50: > 200 µM

## COP(=O)(OC)C(=O)c1ccccc1
  EC50: > 1150 µM
  IC50: > 1150 µM

## O=C1C(CN2CCCCC2)CCC1CN1CCCCC1 (stereo unspecified)
  EC50: > 200 µM
  IC50: 8.13 µM

## CCOC(=O)C(C)(c1c(C)n(C)c2ccccc12)c1c(C)n(C)c2ccccc12
  EC50: > 200 µM
  IC50: > 100 µM

## O=C=Nc1cc(S(=O)(=O)c2ccc(Cl)c(N=C=O)c2)ccc1Cl
  EC50: > 200 µM
  IC50: > 200 µM

## CC(C)(C)c1cc2c(c(C(C)(C)C)c1)OC(C1Nc3cc(C(C)(C)C)cc(C(C)(C)C)c3O1)N2 (stereo unspecified)
  EC50: > 100 µM
  IC50: 21.4 µM

## Cc1cc(CS(=O)(=O)/C=C/c2ccccc2[N+](=O)[O-])c(CS(=O)(=O)/C=C/c2ccccc2[N+](=O)[O-])cc1C
  EC50: > 11.5 µM
  IC50: > 11.5 µM

## Cc1nnc(NS(=O)(=O)c2ccc(N=Nc3c(N)n(C)c(=O)n(C)c3=O)cc2)s1
  outcome: inactive

## Cc1nc(-n2nc(-c3ccccc3)cc2-c2ccccc2)sc1C(=O)/C=C/c1cccc([N+](=O)[O-])c1
  EC50: > 14.5 µM
  IC50: 11 µM

## Cc1ccsc1/C=N/Nc1ncccn1
  EC50: > 200 µM
  IC50: > 200 µM

## Cc1c2ccc(Cl)cc2nc2ccc(OCCNC(=O)[C@H](CCCN=C(N)N)NC(=O)OC(C)(C)C)cc12
  EC50: > 200 µM
  IC50: 89.1 µM

## N#CC1=C(N)n2c(s/c(=C\c3ccc(Cl)cc3)c2=O)=C(c2nc3ccccc3[nH]2)C1c1ccc(Cl)cc1 (stereo unspecified)
  EC50: > 5.01 µM
  IC50: > 5.01 µM
